From ChEMBL document CHEMBL1201862, “PubChem BioAssay data set” (2004) come the findings set out here.

The target in experiment [1] is DNA dC->dU-editing enzyme APOBEC-3G (Homo sapiens, UniProt Q9HC16). Kind of experiment: Dose Response confirmation of small molecule APOBEC3G DNA Deaminase Inhibitors via a fluorescence-based single-stranded DNA deaminase assay. [Related pubchem assays (depositor defined):AID493012, AID493028]. It is filed as functional.
Experiment [2] deals with T1, Sentrin-specific protease 7 (Homo sapiens, UniProt Q9BQF6).
T1 sequence (Q9BQF6 whole entry): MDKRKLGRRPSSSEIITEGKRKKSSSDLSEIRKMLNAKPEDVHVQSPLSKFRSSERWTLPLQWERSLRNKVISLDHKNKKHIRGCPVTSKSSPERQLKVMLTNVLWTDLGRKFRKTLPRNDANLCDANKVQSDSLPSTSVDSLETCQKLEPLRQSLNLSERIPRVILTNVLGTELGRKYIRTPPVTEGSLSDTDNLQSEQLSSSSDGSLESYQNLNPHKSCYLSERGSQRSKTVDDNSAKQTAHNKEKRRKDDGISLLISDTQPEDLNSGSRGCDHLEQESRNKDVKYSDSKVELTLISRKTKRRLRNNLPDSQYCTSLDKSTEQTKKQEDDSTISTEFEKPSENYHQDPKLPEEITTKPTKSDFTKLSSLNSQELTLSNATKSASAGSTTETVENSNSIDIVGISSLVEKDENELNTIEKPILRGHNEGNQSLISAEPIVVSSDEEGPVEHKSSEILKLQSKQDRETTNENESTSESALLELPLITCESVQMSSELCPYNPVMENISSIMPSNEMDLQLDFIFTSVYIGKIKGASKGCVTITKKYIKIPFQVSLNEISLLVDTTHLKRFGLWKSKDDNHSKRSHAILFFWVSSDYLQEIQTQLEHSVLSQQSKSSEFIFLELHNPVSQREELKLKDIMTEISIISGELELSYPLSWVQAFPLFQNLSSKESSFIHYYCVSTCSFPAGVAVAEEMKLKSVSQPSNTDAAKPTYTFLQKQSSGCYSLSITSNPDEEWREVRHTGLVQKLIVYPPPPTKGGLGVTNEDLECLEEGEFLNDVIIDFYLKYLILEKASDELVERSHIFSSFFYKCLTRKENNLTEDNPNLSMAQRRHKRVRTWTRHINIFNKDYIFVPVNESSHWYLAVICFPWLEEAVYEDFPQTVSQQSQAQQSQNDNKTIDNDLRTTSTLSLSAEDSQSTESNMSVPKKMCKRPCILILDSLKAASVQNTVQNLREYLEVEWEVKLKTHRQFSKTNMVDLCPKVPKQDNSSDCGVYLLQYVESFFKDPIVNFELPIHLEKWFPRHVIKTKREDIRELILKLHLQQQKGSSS
It is filed as functional.

In experiment [3] the target is Voltage-gated N-type calcium channel alpha-1B subunit/Amyloid beta A4 precursor protein-binding family A member 1 (Homo sapiens, UniProt Q00975+Q02410). It is filed as protein assay.
Another experiment addresses Genome polyprotein (dengue virus type 2, UniProt P29990). Put plainly: Dengue-2 NS5 methyltransferase inhibitors, primary screen, biochemical, confirmation dose response (AID 588689). It is filed as functional.
For experiment [4], the target named is T2, Sentrin-specific protease 8 (Homo sapiens, UniProt Q96LD8).
T2 sequence (Q96LD8 whole entry): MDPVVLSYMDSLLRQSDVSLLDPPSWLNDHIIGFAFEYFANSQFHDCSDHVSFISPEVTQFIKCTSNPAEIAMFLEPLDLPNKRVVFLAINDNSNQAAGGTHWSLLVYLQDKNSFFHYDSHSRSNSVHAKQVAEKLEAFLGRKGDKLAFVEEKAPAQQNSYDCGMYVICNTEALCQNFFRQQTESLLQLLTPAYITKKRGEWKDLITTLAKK
It is filed as functional.

Experiment [5] concerns the target T2, Sentrin-specific protease 8. It is filed as functional. The source holds these as a separate data set.
The target of experiment [6] is Protein kinase C theta type (Homo sapiens, UniProt Q04759). Kind of experiment: Navigating the Kinome. Panel member name: PRKCQ. It is filed as functional.
Chain of Protein kinase C theta type (Q04759 whole entry): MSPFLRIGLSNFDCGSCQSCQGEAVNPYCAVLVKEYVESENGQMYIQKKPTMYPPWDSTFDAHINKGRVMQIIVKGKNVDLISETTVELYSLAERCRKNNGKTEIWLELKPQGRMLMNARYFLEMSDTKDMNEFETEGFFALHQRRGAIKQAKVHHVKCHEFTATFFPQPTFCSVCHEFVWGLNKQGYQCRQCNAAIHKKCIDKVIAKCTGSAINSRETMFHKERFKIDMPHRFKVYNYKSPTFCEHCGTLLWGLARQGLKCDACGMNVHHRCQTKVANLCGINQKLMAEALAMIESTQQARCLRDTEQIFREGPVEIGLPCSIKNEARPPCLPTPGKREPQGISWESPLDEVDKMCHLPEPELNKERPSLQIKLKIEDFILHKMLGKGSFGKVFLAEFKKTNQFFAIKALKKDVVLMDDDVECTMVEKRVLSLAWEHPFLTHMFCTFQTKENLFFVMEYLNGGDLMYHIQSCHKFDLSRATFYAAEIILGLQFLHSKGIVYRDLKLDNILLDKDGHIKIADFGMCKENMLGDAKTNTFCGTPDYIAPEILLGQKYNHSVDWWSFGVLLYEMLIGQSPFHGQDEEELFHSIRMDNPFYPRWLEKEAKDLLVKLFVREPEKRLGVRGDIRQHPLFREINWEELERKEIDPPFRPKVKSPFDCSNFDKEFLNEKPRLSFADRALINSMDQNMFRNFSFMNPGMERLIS
Experiment [7] has as its target Rho-associated protein kinase 1 (Homo sapiens, UniProt Q13464). It is filed as functional.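 Further: measured within a broad kinome-wide panel profiling many kinases.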
The target of experiment [8] is Dual specificity mitogen-activated protein kinase kinase 2 (Homo sapiens, UniProt P36507). Kind of experiment: Navigating the Kinome. Panel member name: MAP2K2. It is filed as functional.
Experiment [9] concerns the target Serine/threonine-protein kinase TBK1 (Homo sapiens, UniProt Q9UHD2). Put plainly: Navigating the Kinome. Panel member name: TBK1. It is filed as functional.
In experiment [10] the target is Death-associated protein kinase 3 (Homo sapiens, UniProt O43293). It is filed as functional.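 Further: measured as one member of a kinome-wide profiling panel.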
For experiment [11], the target named is Mitogen-activated protein kinase kinase kinase kinase 4 (Homo sapiens, UniProt O95819). It is filed as functional.
Experiment [12] concerns the target Tyrosine-protein kinase JAK2 (Homo sapiens, UniProt O60674). It is filed as functional.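 Further: JAK2 tested as one member of a kinase panel.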
The target in experiment [13] is Casein kinase I isoform alpha (Homo sapiens, UniProt P48729). It is filed as functional.
Experiment [14] concerns the target Tyrosine-protein kinase BTK (Homo sapiens, UniProt Q06187). It is filed as functional.
Experiment [15] has as its target Serine/threonine-protein kinase PAK 4 (Homo sapiens, UniProt O96013). It is filed as functional.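 Further: value obtained within a kinome profiling panel in which PAK4 was one of the panel members.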
Experiment [16] deals with Hepatocyte growth factor receptor (Homo sapiens, UniProt P08581). It is filed as functional.
The target of experiment [17] is Tyrosine-protein kinase Fyn (Homo sapiens, UniProt P06241). It is filed as functional.
The target of experiment [18] is Receptor-type tyrosine-protein kinase FLT3 (Homo sapiens, UniProt P36888). It is filed as functional.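 Further: FLT3 was tested as one member of a kinome-wide kinase panel.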
For experiment [19], the target named is cAMP-dependent protein kinase catalytic subunit PRKX (Homo sapiens, UniProt P51817). It is filed as functional.
Chain of cAMP-dependent protein kinase catalytic subunit PRKX (P51817 whole entry): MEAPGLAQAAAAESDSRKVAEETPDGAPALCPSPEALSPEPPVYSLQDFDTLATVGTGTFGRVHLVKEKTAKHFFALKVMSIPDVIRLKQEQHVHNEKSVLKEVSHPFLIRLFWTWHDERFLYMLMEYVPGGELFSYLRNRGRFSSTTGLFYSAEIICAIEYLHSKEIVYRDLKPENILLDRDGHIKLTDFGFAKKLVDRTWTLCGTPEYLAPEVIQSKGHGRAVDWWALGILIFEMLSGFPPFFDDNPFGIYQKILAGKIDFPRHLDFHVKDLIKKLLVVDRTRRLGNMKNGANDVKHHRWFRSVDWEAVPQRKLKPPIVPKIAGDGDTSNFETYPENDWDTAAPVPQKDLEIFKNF
Experiment [20] has as its target Ribosomal protein S6 kinase alpha-3 (Homo sapiens, UniProt P51812). It is filed as functional.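 Further: measured within a kinome-wide profiling panel.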
Experiment [21] deals with Serine/threonine-protein kinase pim-1 (Homo sapiens, UniProt P11309). It is filed as functional.
Experiment [22] has as its target Serine/threonine-protein kinase TAO1 (Homo sapiens, UniProt Q7L7X3). It is filed as functional.
Experiment [23] concerns the target Cyclin-dependent kinase 9 (Homo sapiens, UniProt P50750). It is filed as functional.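 Further: value from the CDK9 entry of a kinome-spanning kinase panel.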
Experiment [24] addresses Tyrosine-protein kinase JAK3 (Homo sapiens, UniProt P52333). It is filed as functional.
For experiment [25], the target named is cAMP-dependent protein kinase catalytic subunit alpha (Homo sapiens, UniProt P17612). It is filed as functional.
A further experiment addresses Albumin (Bos taurus, UniProt P02769). Put plainly: Counterscreen for inhibitors of T-cell receptor (TCR)-CD3 interaction: Fluorescence-based biochemical high throughput dose response assay to identify inhibitors of T-cell receptor (TCR)-CD3 interaction using a TAMRA-labeled BSA probe. It is filed as functional. Background: A counterscreen serves to expose hits that act by an unwanted route or on another target.

Calls of active or inactive are those of the source. Some results are limits rather than exact numbers.

Chain of Serine/threonine-protein kinase TAO1 (Q7L7X3 whole entry): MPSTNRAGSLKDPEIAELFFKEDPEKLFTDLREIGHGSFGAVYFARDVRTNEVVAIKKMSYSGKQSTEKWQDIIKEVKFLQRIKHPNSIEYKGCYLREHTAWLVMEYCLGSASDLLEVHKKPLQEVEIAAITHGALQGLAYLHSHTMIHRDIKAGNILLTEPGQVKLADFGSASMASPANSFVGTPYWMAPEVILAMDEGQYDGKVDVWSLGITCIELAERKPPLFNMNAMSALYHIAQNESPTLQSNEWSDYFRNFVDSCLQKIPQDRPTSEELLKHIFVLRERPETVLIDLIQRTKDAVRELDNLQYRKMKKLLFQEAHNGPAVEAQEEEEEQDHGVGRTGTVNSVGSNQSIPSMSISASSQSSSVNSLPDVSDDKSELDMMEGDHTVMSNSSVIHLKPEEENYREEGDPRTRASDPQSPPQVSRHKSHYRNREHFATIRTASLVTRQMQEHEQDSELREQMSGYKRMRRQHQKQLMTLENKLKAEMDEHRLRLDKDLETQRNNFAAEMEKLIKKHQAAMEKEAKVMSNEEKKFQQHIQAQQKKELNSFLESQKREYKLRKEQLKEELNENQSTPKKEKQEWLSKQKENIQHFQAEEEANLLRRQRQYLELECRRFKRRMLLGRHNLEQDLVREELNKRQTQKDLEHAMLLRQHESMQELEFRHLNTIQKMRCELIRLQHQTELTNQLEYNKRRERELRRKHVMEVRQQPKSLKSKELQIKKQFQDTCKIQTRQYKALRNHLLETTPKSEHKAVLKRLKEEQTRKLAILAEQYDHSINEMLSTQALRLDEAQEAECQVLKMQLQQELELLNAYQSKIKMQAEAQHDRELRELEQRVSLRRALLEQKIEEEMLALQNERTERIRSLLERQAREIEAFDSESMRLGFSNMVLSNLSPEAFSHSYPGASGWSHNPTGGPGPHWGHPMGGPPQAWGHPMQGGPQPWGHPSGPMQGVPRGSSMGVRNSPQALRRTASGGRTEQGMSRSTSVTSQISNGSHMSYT
Chain of DNA dC->dU-editing enzyme APOBEC-3G (Q9HC16 whole entry): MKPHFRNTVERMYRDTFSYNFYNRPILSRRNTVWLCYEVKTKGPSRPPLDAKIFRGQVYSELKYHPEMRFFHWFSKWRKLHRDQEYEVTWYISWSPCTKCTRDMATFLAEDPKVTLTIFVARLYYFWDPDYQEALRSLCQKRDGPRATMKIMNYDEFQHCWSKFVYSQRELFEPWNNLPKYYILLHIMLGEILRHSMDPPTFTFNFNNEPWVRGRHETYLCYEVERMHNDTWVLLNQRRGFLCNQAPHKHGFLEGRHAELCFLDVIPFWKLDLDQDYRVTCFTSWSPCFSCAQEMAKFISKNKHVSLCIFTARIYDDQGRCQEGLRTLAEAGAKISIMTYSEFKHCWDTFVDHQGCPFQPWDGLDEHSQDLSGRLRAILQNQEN
Chain of Tyrosine-protein kinase JAK3 (P52333 whole entry): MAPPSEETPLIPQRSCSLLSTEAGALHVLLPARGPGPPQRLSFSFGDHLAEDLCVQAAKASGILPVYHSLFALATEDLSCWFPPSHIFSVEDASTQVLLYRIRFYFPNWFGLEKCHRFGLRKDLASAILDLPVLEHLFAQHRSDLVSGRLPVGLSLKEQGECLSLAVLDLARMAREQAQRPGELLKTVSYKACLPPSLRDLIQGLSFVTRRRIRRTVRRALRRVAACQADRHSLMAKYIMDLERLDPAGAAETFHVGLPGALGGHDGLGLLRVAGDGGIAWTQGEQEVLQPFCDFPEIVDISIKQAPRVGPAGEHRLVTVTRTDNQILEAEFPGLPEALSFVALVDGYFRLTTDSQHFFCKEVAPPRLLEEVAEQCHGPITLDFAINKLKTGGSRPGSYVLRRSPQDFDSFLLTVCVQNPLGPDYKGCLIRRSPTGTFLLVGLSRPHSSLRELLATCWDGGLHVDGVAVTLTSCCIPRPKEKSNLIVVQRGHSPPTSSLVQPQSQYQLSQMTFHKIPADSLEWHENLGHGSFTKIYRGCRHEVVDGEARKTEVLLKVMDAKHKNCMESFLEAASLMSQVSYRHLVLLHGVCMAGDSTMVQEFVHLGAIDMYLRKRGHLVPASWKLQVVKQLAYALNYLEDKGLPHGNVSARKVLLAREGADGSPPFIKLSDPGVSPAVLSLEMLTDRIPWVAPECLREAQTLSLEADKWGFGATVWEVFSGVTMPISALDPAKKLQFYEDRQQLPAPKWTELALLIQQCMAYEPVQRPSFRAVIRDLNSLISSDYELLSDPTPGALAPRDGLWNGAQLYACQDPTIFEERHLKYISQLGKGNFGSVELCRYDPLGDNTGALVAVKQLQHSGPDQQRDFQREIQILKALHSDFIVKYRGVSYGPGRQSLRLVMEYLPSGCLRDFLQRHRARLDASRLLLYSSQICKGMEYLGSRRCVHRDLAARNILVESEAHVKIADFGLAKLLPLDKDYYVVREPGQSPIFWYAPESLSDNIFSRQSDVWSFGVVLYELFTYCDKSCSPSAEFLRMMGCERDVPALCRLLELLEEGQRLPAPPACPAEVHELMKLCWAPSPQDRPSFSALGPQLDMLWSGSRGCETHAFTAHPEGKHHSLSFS
Chain of Serine/threonine-protein kinase TBK1 (Q9UHD2 whole entry): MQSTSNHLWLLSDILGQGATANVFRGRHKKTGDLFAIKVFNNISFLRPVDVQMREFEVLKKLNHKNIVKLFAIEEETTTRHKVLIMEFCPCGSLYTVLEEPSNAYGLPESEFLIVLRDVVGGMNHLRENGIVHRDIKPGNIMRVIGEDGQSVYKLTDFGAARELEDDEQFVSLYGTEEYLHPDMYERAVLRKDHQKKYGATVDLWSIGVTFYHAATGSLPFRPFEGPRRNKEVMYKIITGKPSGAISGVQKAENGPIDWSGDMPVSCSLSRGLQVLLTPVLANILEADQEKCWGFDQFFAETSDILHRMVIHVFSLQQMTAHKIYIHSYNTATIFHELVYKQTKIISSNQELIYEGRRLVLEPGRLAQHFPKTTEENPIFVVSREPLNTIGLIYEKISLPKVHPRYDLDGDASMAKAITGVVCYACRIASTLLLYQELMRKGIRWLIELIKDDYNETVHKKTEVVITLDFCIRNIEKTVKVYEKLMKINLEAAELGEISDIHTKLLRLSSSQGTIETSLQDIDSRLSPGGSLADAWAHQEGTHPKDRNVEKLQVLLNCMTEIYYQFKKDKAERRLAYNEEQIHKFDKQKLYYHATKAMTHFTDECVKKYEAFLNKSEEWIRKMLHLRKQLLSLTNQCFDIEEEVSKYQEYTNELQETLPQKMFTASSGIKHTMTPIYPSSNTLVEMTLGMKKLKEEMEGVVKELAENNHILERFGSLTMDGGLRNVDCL
Chain of Albumin (P02769 whole entry): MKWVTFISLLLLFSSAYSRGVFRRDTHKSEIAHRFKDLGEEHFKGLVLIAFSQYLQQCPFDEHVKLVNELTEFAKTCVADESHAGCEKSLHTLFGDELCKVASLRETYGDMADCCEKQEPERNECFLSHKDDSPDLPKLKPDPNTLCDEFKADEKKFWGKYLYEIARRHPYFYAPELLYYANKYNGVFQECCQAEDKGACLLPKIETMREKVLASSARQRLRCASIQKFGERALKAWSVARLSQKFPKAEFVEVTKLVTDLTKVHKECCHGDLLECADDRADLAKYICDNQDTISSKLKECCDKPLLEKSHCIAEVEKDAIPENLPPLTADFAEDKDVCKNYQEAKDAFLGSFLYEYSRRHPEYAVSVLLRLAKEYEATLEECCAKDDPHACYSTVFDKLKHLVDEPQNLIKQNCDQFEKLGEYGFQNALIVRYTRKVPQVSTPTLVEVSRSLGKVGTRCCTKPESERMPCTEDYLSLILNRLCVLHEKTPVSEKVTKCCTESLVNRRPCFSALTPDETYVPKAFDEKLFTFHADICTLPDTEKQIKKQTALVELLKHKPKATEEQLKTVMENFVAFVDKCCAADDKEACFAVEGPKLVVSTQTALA

For the compound `CC(=O)N(C1=C(Cl)C(=O)c2ccccc2C1=O)c1ccc(C(=O)O)cc1`, the IC50 in [1] was 8.03 µM (active); in [2], 8.9 µM (active); in experiment [3], 0.225 µM (active); at Genome polyprotein it was 5.89 µM (active); in [4], 5.99 µM (active).

Regarding `CC1(C)C=C2C(=NN(c3ccccc3)C(N)=C2C#N)CO1`, the IC50 in experiment [5] was 0.0693 µM (active).

As for `Cc1ccc(-c2cc3nc(Br)cnc3[nH]2)cc1`, the Ki in experiment [6] is > 2.51 µM (inactive); in experiment [7], > 3.98 µM (inactive); in experiment [8] it was > 3.98 µM (inactive); in [9], > 3.16 µM (inactive); in experiment [10], > 5.01 µM (inactive); in [11], > 5.01 µM (inactive). Further, the Ki was > 2.51 µM (inactive) in experiment [12]; > 3.98 µM (inactive) in experiment [13]; > 6.31 µM (inactive) in [14]; > 5.01 µM (inactive) in experiment [15]; > 2.51 µM (inactive) in [16]; > 6.31 µM (inactive) in experiment [17]. Also, the Ki is > 3.16 µM (inactive) in experiment [18]; > 3.16 µM (inactive) in experiment [19]; > 3.98 µM (inactive) in [20]; > 6.31 µM (inactive) in experiment [21]; > 6.31 µM (inactive) in experiment [22]; > 1.58 µM (inactive) in experiment [23]. Moreover, the results for the Ki in experiment [24] and in experiment [25] were > 5.01 µM (inactive) and > 1.26 µM (inactive), respectively.

Consider `O=C1C=C(O)c2c(O)cc(O)c(O)c2C1=O`, for which the IC50 on Albumin was > 94.1 µM (inactive).

In general, IC50 refers to the point on the concentration scale where inhibition reaches its midpoint. A word on the Ki: it is the dissociation constant of the complex between target and ligand, obtained from inhibition or displacement.
